One data set concerns the target AChE (Homo sapiens, UniProt P22303). The data set is described as follows: biochemical. The protocol:
(§1) According to the modified Ellman approach outlined in our team’s earlier work, the AChE and BChE inhibitory activities of the obtained compounds were evaluated.[18]−[21]

The next data set concerns the target BChE (Homo sapiens, UniProt P06276). Nature of the data set: biochemical. The protocol: as §1
The target in data set [1] is T1, MAO-A (Homo sapiens, UniProt P21397).
T1 sequence (P21397 1-527): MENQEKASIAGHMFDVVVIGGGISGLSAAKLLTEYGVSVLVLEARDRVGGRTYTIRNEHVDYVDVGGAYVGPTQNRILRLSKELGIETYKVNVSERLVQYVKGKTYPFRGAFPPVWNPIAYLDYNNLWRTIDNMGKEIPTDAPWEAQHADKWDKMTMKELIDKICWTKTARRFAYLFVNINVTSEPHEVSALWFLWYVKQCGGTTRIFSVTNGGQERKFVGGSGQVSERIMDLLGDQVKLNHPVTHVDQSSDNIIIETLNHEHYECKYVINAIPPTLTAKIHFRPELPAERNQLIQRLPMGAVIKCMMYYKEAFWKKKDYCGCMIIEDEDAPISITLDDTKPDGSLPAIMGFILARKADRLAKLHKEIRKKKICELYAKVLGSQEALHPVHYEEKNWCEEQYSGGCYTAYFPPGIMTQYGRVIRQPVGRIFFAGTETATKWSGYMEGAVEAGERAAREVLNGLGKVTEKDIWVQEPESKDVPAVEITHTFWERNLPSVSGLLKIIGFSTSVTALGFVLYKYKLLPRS
The data set is described as follows: In vitro MAO-A inhibition assay (fluorometric). The data set is classed as biochemical.

A further data set has as its target T2, MAO-B (Homo sapiens, UniProt P27338).
T2 sequence (P27338 1-520): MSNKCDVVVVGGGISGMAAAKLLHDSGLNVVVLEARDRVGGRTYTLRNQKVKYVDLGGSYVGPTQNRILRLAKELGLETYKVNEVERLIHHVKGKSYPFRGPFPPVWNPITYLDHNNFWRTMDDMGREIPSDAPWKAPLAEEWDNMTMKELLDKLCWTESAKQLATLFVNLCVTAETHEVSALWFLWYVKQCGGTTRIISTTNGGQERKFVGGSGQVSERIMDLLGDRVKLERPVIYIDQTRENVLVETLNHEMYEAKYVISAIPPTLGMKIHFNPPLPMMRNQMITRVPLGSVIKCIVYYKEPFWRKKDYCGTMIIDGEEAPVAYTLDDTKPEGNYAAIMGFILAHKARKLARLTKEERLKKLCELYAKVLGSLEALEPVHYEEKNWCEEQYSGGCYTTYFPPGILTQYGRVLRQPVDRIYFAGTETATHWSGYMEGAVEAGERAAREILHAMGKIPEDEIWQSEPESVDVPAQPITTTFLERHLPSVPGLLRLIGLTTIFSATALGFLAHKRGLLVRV
The data set is described as follows: In vitro MAO-B inhibition assay (fluorometric). It counts as biochemical.

Data set [2] relates to NIH/3T3 mouse embryonic fibroblast cell line. Nature of the data set: Cytotoxicity test (MTT). It counts as cell-based. Conditions: NIH/3T3 mouse fibroblast healthy cell line. The protocol:
(§2) The NIH/3T3 cells were incubated according to the manufacturer’s recommendations. In 96-well plates, NIH/3T3 cells were seeded at a density of 1 × 10^4 cells per well. The MTT test was conducted in line with the previously mentioned standards.[19],[22],[23],[28],[30]

In data set [3] the target is T1, MAO-A. Nature of the data set: Enzyme kinetics on MAO-A (Lineweaver–Burk). It counts as biochemical. The protocol: The experimental procedures used in the kinetic investigations were identical to those used in the inhibition experiments. […]. Acetylthiocholine iodide (ATC) and butyrylthiocholine iodide (BTC) solutions were utilized as the substrates for the ChE enzymes, with serial dilutions at six different concentrations (600, 300, 150, 75, 37.5, and 18.75 μM). The tyramine substrate solution (concentrations ranging from 20 to 0.625 μM) was produced for the MAO enzymes at six different concentrations. Separate measurements were conducted both with and without an inhibitor. Using the Microsoft Office Excel 2013 program, the resulting absorbance values were compared to various substrate concentrations, and Lineweaver–Burk plots were created.[19]−[22]
The absorbance data from the experiments and the substrate concentrations were used to generate Lineweaver–Burk plots. The graphic’s x-axis stands for 1/[S] […] […]. The intersection of these four lines on the diagram was used to define the type of substrate and inhibitor reaction against the enzyme.
Reversible and irreversible inhibition of enzymes are the two categories that inhibition is commonly subdivided into. In irreversible inhibition, the inhibitor either creates a recalcitrant complex structure or establishes a covalent bond with the enzyme. […]

Data set [4] in a line: DPPH free-radical scavenging activity assay. The note with it: serial dilution 10^–3–10^–9 M; read-out: IC50 on DPPH antioxidant activity. The protocol:
This approach is based on evaluating the free-radical scavenging abilities of the stable 1,1-diphenyl-2-picrylhydrazyl (DPPH) radical. To create the DPHH solution, 9.86 mg of DPPH was weighed and diluted to 25 mL with methanol. The test wells were then filled with 100 μL of the DPPH solution and 100 μL of the test solutions. Only 200 μL of methanol was used for the blank reading, while the control reading required the usage of 100 μL each of methanol and the DPPH solution. Following incubation, a spectrophotometric measurement at 517 nm was carried out.[26],[27]

A further data set concerns the target T3, Beta Amyloid 1–42 (Aβ42) (Homo sapiens, UniProt P05067).
T3 construct: The Beta Amyloid 1–42 (Aβ42) Ligand Screening Assay kit; purchased BioVision, Milpitas, CA
Nature of the data set: Beta Amyloid 1–42 (Aβ42) inhibitor screening assay. It counts as biochemical. An excerpt: The Beta Amyloid 1–42 (Aβ42) Ligand Screening Assay kit (BioVision, Milpitas, CA) technique based on the fluorometric approach served as the basis for the experimental process.[21],[28],[29]

The nature of the next data set: Cytotoxicity test (MTT). It counts as cell-based. Conditions: NIH/3T3 mouse embryonic fibroblast cells (ATCC CRL-1658), NIH/3T3 mouse fibroblast healthy cell line. The protocol:
as §2

The term IC50 denotes the concentration that gives 50% inhibition. The term inhibition denotes the drop in the measured response relative to a control, in per cent. A word on the Ki: it is a measure of affinity in units of concentration, obtained from inhibition or displacement.

Chain of AChE (P22303 32-614): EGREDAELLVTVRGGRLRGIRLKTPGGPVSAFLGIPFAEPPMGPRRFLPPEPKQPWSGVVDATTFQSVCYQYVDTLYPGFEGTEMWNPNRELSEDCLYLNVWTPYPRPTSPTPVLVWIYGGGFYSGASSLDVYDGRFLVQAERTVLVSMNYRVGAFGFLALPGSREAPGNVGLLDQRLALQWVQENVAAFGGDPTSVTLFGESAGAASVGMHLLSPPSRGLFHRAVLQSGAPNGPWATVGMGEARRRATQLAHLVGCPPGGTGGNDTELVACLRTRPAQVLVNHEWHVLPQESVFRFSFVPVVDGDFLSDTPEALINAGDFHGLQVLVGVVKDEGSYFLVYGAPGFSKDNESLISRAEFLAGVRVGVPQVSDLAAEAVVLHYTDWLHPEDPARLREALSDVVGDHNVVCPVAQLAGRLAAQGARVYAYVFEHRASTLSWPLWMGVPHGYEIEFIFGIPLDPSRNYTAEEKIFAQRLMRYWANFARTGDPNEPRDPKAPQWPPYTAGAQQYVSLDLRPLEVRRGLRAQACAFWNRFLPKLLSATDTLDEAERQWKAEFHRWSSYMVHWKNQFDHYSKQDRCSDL
Chain of BChE (P06276 29-602): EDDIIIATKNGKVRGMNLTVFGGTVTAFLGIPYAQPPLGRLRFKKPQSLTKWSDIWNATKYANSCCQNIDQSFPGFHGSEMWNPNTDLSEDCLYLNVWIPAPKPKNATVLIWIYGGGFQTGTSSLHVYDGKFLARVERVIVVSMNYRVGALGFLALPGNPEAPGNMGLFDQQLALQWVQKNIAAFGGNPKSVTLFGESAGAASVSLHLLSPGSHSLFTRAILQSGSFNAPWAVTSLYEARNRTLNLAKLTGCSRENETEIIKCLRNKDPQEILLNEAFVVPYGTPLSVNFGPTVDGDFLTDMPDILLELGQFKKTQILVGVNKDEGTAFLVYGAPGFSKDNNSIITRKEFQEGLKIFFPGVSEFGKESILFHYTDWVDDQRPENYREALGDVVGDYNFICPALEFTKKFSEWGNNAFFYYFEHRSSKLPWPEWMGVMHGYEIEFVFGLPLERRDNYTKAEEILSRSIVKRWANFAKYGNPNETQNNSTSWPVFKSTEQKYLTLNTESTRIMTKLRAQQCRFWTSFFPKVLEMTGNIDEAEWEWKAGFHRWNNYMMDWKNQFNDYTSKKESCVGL
T3 sequence (P05067 672-713 limits assumed): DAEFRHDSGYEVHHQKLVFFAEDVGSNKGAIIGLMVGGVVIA

Regarding `COc1cc2c(cc1OC)C(=O)C(=Cc1ccc(NC(=O)CN3CCN(CCN(C)C)CC3)cc1)C2` [D24], the results for the IC50 (on AChE; in data set [2]) were 46.9 ± 1.9 nM and 18640 ± 119 nM, respectively. For the same molecule, the “human AChE inhibition (%)” value at AChE (10^–3 M) is listed as 93.224 ± 1.719%; on AChE (10^–4 M) it was 90.486 ± 1.298%; on AChE (10^–5 M), 82.415 ± 1.102%; at AChE (10^–6 M), 72.846 ± 1.267%; on AChE (10^–7 M) it was 63.963 ± 1.088%; at AChE (10^–8 M) it was 41.281 ± 0.623%. Moreover, the “human AChE inhibition (%)” value on AChE (10^–9 M) amounted to 18.773 ± 0.411%. The “human BChE inhibition (%)” value on BChE (10^–3 M) was 97.932 ± 2.016%; at BChE (10^–4 M), 49.401 ± 0.559%. Further, the entries for the “human MAO-A inhibition (%)” value on MAO-A [1] (10^–3 M) and at MAO-A [1] (10^–4 M) were 64.076 ± 0.323% and 25.257 ± 0.621%, respectively. In addition, the results for the “human MAO-B inhibition (%)” value at MAO-B (10^–3 M) and at MAO-B (10^–4 M) were 75.628 ± 1.426% and 46.324 ± 0.521%, respectively.
`CCCN(C)CC(=O)Nc1ccc(/C=C2\Cc3cc(OC)ccc3C2=O)cc1` [D28]: the IC50 on AChE is 24.8 ± 1 nM; on MAO-A [1] it was 111 ± 4.7 nM; at MAO-B, 40.9 ± 1.9 nM; in [4] it was 210 ± 10 nM; on Beta Amyloid 1–42 (Aβ42) (read-out: IC50 on β-amyloid plaque aggregation), 147 ± 5.3 nM; in “Cytotoxicity test (MTT)” it was 6520 ± 175 nM. Further, the inhibition at 1000 µM was 98.6 ± 1.21% on AChE (10^–3 M); 61.3 ± 0.997% against BChE (10^–3 M); 89.6 ± 1.29% against MAO-A [1] (10^–3 M); 92.6 ± 1.33% against MAO-B (10^–3 M); 82.7 ± 1.68% at Beta Amyloid 1–42 (Aβ42) (10^–3 M, read-out: % β-amyloid plaque inhibition). Also, the inhibition at 100 µM was found to be 95.3 ± 1.31% on AChE (10^–4 M); 36.6 ± 0.667% on BChE (10^–4 M); 89.3 ± 1.24% at MAO-B (10^–4 M); 75.6 ± 1.04% on Beta Amyloid 1–42 (Aβ42) (10^–4 M, read-out: % β-amyloid plaque inhibition). The inhibition at 10 µM turned out to be 92.8 ± 1.03% against AChE (10^–5 M), 72.7 ± 1.11% on MAO-A [1] (10^–5 M) and 80.5 ± 1.01% on MAO-B (10^–5 M). Moreover, the inhibition at 1 µM is 87.1 ± 1.06% against AChE (10^–6 M), 63.4 ± 1.08% against MAO-A [1] (10^–6 M) and 75.2 ± 1.08% against MAO-B (10^–6 M). Further, the inhibition at 0.1 µM came to 72 ± 0.958% at AChE (10^–7 M), 59 ± 0.895% at MAO-A [1] (10^–7 M) and 67 ± 0.958% against MAO-B (10^–7 M). For the same molecule, the values for the inhibition at 0.01 µM on AChE (10^–8 M), on MAO-A [1] (10^–8 M) and against MAO-B (10^–8 M) were 36 ± 0.623%, 39.2 ± 0.714% and 41.5 ± 0.547%, respectively. Also, the inhibition at 0.001 µM came out at 19.4 ± 0.455% against AChE (10^–9 M), 18.7 ± 0.521% against MAO-A [1] (10^–9 M) and 18.8 ± 0.421% at MAO-B (10^–9 M). Moreover, the “fold stronger MAO-A inhibition compared to moclobemide” value on MAO-A [1] (ratio of IC50 values) was 50 ×. The “type of inhibition of MAO-A” value on MAO-A [3] (Lineweaver–Burk plots) is reported as “noncompetitive inhibition”. On MAO-A [3] (secondary plot of Lineweaver–Burk data, read-out: steady-state inhibition constant (Ki), MAO-A), the Ki was found to be 107 nM.
